Experimental findings from patent US20250017914A1, “6-AZA-QUINOLINE DERIVATIVES AND RELATED USES” (Black Diamond Therapeutics, Inc., priority 2021, published 2025) are described below.

The experiment deals with T1, BaF3 BRAF-KIAA1549 fusion cells (Homo sapiens, UniProt P15056).
T1 construct: The BRAF-KIAA1549 fusion mutant was subcloned into pMXs-IRES-Blasticidin (RTV-016, Cell Biolabs, San Diego, CA); No tag given; Q9HCM3 (UPF0606 protein KIAA1549)
As to the kind of experiment: BaF3 BRAF-KIAA1549 fusion cell proliferation assay (CellTiterGlo, 96 hours). In kind it is cell-based. The essentials: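 BaF3 cells retrovirally transduced with BRAF-KIAA1549 fusion and blasticidin-selected were plated at 7×10^4 c/well in RPMI, 10% heat-inactivated FBS, 1% L-glutamine, and exposed to compound for 96 hours. Growth was read as ATP content by CellTiterGlo luminescence. IC50 was fitted by Levenberg-Marquardt, normalised to DMSO-treated cells.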

The structures appear in SMILES notation.

T1 sequence (P15056 whole entry, change not shown, the tested form may be a part): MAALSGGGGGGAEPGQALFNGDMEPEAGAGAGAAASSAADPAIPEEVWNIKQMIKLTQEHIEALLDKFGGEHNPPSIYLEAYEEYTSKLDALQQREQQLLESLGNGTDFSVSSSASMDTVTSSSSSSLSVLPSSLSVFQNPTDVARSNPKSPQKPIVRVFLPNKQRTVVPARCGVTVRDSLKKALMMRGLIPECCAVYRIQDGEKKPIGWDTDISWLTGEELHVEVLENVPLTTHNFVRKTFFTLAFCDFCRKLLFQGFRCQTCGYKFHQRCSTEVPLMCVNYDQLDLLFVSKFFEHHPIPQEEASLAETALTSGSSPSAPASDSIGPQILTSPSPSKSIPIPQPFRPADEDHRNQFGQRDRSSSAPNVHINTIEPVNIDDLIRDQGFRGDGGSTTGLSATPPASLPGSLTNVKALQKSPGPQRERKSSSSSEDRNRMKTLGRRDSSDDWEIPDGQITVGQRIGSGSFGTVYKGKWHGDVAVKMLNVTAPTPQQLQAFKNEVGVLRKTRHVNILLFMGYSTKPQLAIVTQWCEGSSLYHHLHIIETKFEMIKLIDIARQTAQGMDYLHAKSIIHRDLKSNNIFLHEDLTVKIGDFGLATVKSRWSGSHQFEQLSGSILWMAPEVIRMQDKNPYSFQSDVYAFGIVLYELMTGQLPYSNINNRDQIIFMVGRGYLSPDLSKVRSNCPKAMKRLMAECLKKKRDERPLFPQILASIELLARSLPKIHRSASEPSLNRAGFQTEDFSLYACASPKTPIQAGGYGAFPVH

Take `Cc1ccc(NC(=O)c2cc(C(F)F)ccn2)cc1-c1cnc2cc(NCCC#N)ncc2c1` [Compound 78, N-(3-(7-((2-cyanoethyl)amino)-1,6-naphthyridin-3-yl)-4-methylphenyl)-4-(difluoromethyl)picolinamide]: where the note is “Table A1”, the GI50 (commonly the concentration that inhibits growth by half) is 20 to 100 nM. For `CNc1cc2nc(C#N)c(-c3cc(NC(=O)c4ccnc(C(F)(F)F)c4)ccc3C)cc2cn1` [Compound 79, N-(3-(2-cyano-7-(methylamino)-1,6-naphthyridin-3-yl)-4-methylphenyl)-2-(trifluoromethyl)isonicotinamide], the GI50 (Table A1) is less than 20 nM. Molecule `CCNc1cc2ncc(-c3cc(NC(=O)c4ccnc(C5(F)CC5)c4)ccc3C)cc2cn1` [Compound 153, N-(3-(7-(ethylamino)-1,6-naphthyridin-3-yl)-4-methylphenyl)-2-(1-fluorocyclopropyl)isonicotinamide] had a concentration for 50% growth inhibition (GI50) (Table A1) of 20 to 100 nM. `Cc1ccc(NC(=O)c2ccnc(C3(F)CC3)c2)cc1-c1cnc2cc(N)ncc2c1` [Compound 154, N-(3-(7-amino-1,6-naphthyridin-3-yl)-4-methylphenyl)-2-(1-fluorocyclopropyl)isonicotinamide]: under “Table A1”, the GI50 was less than 20 nM. Still for that read-out and setting: under `CCNc1cc2ncc(-c3cc(NC(=O)c4cc(C(C)(C)C#N)ccn4)cnc3C)cc2cn1` [Compound 175, 4-(2-cyanopropan-2-yl)-N-(5-(7-(ethylamino)-1,6-naphthyridin-3-yl)-6-methylpyridin-3-yl)picolinamide] stands 20 to 100 nM. Still for that read-out and setting: to `Cc1ncc(NC(=O)c2cc(C(C)(C)C#N)ccn2)cc1-c1cnc2cc(N)ncc2c1` [Compound 176, N-(5-(7-amino-1,6-naphthyridin-3-yl)-6-methylpyridin-3-yl)-4-(2-cyanopropan-2-yl)picolinamide] belongs 20 to 100 nM. The molecule `CNc1cc2ncc(-c3cc(NC(=O)N(C)c4cc(C(F)F)ccn4)ccc3C)cc2cn1` [Compound 189, 1-(4-(difluoromethyl)pyridin-2-yl)-1-methyl-3-(4-methyl-3-(7-(methylamino)-1,6-naphthyridin-3-yl)phenyl)urea] displayed a GI50 (Table A2) of 100 to 500 nM. On the same count and under the same terms, to `CNc1cc2ncc(-c3cc(NC(=O)N(C)c4ccnc(C(F)F)c4)cnc3C)cc2cn1` [Compound 190, 1-(2-(difluoromethyl)pyridin-4-yl)-1-methyl-3-(6-methyl-5-(7-(methylamino)-1,6-naphthyridin-3-yl)pyridin-3-yl)urea] belongs 100 to 500 nM; to `CNc1cc2ncc(-c3cc(NC(=O)c4cccc(C5(C#N)CC5)c4)cnc3C)cc2cn1` [Compound 191, 3-(1-cyanocyclopropyl)-N-(6-methyl-5-(7-(methylamino)-1,6-naphthyridin-3-yl)pyridin-3-yl)benzamide], 20 to 100 nM. The same measure, in the same setting: to `CNc1ncc2cc(-c3cc(NC(=O)c4ccnc(C(C)(C)C#N)c4)cnc3C)cnc2c1C#N` [Compound 192, N-[5-[8-cyano-7-(methylamino)-1,6-naphthyridin-3-yl]-6-methyl-3-pyridyl]-2-(1-cyano-1-methyl-ethyl)pyridine-4-carboxamide] belongs 100 to 500 nM. For `CNc1cc2ncc(-c3cc(NC(=O)c4cccc(C(C)(C)C#N)c4)ccc3C)cc2cn1` [Compound 193, 3-(2-cyanopropan-2-yl)-N-(4-methyl-3-(7-(methylamino)-1,6-naphthyridin-3-yl)phenyl)benzamide], the GI50 (Table A2) was less than 20 nM.

Turning to `CNc1cc2ncc(-c3cc(NC(=O)c4c[nH]c5ccccc45)cnc3C)cc2cn1` [Compound 194, N-(6-methyl-5-(7-(methylamino)-1,6-naphthyridin-3-yl)pyridin-3-yl)-1H-indole-3-carboxamide], where the note is “Table A2”, the GI50 was 20 to 100 nM. `CNc1cc2ncc(-c3cc(NC(=O)c4cnc5n4CCC(C)C5)ccc3C)cc2cn1` (stereo not drawn) [Compound 195, 7-methyl-N-(4-methyl-3-(7-(methylamino)-1,6-naphthyridin-3-yl)phenyl)-5,6,7,8-tetrahydroimidazo[1,2-a]pyridine-3-carboxamide] gave a GI50 (Table A2) of no less than 500 nM. `CNc1cc2ncc(-c3cc(C(=O)Nc4cccc(C(C)(C)C#N)c4)cnn3)cc2cn1` [Compound 196, N-(3-(2-cyanopropan-2-yl)phenyl)-6-(7-(methylamino)-1,6-naphthyridin-3-yl)pyridazine-4-carboxamide] had a concentration for 50% growth inhibition (GI50) (Table A2) of no less than 500 nM.

`CNc1cc2ncc(-c3c(C)ncc(NC(=O)c4cc(C(C)(C)C#N)ccn4)c3Cl)cc2cn1` [Compound 197, N-[4-chloro-6-methyl-5-[7-(methylamino)-1,6-naphthyridin-3-yl]-3-pyridyl]-4-(1-cyano-1-methyl-ethyl)pyridine-2-carboxamide]: the GI50 (Table A2) was no less than 500 nM. For the molecule `CNc1cc2ncc(-c3cc(NC(=O)c4cccc5c4CCCC5=O)cnc3C)cc2cn1` [Compound 198, N-(6-methyl-5-(7-(methylamino)-1,6-naphthyridin-3-yl)pyridin-3-yl)-5-oxo-5,6,7,8-tetrahydronaphthalene-1-carboxamide], under “Table A2”, the GI50 is no less than 500 nM. With `CNc1cc2ncc(-c3cc(NC(=O)c4cccc5c4CCCC5O)cnc3C)cc2cn1` (stereo not drawn) [Compound 199, 5-hydroxy-N-(6-methyl-5-(7-(methylamino)-1,6-naphthyridin-3-yl)pyridin-3-yl)-5,6,7,8-tetrahydronaphthalene-1-carboxamide], the GI50 (Table A2) was no less than 500 nM.

`CNc1cc2ncc(-c3cc(NC(=O)c4cccc(C(C)(F)F)c4)cnc3C)cc2cn1` [Compound 200, 3-(1,1-difluoroethyl)-N-(6-methyl-5-(7-(methylamino)-1,6-naphthyridin-3-yl)pyridin-3-yl)benzamide] came in with a concentration for 50% growth inhibition (GI50) (Table A2) of less than 20 nM.

Consider `CNc1cc2ncc(-c3cc(NC(=O)c4cc(C(O)C5CC5)ccn4)cnc3C)cc2cn1` (stereo not drawn) [Compound 201, 4-(cyclopropyl(hydroxy)methyl)-N-(6-methyl-5-(7-(methylamino)-1,6-naphthyridin-3-yl)pyridin-3-yl)picolinamide], for which the GI50 (Table A2) is 20 to 100 nM. Still for that read-out and setting: to `CNc1cc2ncc(-c3cc(NC(=O)c4cc(C(O)C(C)C)ccn4)cnc3C)cc2cn1` (stereo not drawn) [Compound 202, 4-(1-hydroxy-2-methylpropyl)-N-(6-methyl-5-(7-(methylamino)-1,6-naphthyridin-3-yl)pyridin-3-yl)picolinamide] belongs 20 to 100 nM; to `CNc1cc2ncc(-c3cc(NC(=O)c4cc(C(NC)C(F)(F)F)ccn4)ccc3C)cc2cn1` (stereo not drawn) [Compound 203, N-(4-methyl-3-(7-(methylamino)-1,6-naphthyridin-3-yl)phenyl)-4-(2,2,2-trifluoro-1-(methylamino)ethyl)picolinamide], less than 20 nM; to `CNc1cc2ncc(-c3cc(NC(=O)c4cnc5n4CC(C)CC5)ccc3C)cc2cn1` (stereo not drawn) [Compound 204, 6-methyl-N-(4-methyl-3-(7-(methylamino)-1,6-naphthyridin-3-yl)phenyl)-5,6,7,8-tetrahydroimidazo[1,2-a]pyridine-3-carboxamide], less than 20 nM.

Where the note is “Table A2”, `CNc1cc2ncc(-c3cc(NC(=O)c4cnc5n4C(C)CCC5)ccc3C)cc2cn1` (stereo not drawn) [Compound 205, 5-methyl-N-(4-methyl-3-(7-(methylamino)-1,6-naphthyridin-3-yl)phenyl)-5,6,7,8-tetrahydroimidazo[1,2-a]pyridine-3-carboxamide] registered a GI50 of 100 to 500 nM. Still for that read-out and setting: under `CNc1cc2ncc(-c3cc(NC(=O)c4cc(C(O)(O)C(F)(F)F)ccn4)cnc3C)cc2cn1` [Compound 206, N-(6-methyl-5-(7-(methylamino)-1,6-naphthyridin-3-yl)pyridin-3-yl)-4-(2,2,2-trifluoro-1,1-dihydroxyethyl)picolinamide] stands 20 to 100 nM.
